# In ChEMBL document CHEMBL5131564, “Discovery of Potent and Selective Receptor-Interacting Serine/Threonine Protein Kinase 2 (RIPK2) Inhibitors for the Treatment of Inflammatory Bowel Diseases (IBDs)” (J Med Chem, 2022):
# Activity calls are given as the source filed them. No cut-off for these calls is given here.
# Key:
# [1] = Cmax in Balb/C mouse at 10 mg/kg, iv measured upto 48 hrs by LC-MS/MS analysis; type: ADME, organism-based; parameters: dose 10 mg/kg, time < 48 hrs, route iv; settings: in vivo
# [2] = target: Mast/stem cell growth factor receptor Kit (Homo sapiens, UniProt P10721); assay: Inhibition of human KIT by kinase assay
# Sequence of Mast/stem cell growth factor receptor Kit (P10721 whole entry): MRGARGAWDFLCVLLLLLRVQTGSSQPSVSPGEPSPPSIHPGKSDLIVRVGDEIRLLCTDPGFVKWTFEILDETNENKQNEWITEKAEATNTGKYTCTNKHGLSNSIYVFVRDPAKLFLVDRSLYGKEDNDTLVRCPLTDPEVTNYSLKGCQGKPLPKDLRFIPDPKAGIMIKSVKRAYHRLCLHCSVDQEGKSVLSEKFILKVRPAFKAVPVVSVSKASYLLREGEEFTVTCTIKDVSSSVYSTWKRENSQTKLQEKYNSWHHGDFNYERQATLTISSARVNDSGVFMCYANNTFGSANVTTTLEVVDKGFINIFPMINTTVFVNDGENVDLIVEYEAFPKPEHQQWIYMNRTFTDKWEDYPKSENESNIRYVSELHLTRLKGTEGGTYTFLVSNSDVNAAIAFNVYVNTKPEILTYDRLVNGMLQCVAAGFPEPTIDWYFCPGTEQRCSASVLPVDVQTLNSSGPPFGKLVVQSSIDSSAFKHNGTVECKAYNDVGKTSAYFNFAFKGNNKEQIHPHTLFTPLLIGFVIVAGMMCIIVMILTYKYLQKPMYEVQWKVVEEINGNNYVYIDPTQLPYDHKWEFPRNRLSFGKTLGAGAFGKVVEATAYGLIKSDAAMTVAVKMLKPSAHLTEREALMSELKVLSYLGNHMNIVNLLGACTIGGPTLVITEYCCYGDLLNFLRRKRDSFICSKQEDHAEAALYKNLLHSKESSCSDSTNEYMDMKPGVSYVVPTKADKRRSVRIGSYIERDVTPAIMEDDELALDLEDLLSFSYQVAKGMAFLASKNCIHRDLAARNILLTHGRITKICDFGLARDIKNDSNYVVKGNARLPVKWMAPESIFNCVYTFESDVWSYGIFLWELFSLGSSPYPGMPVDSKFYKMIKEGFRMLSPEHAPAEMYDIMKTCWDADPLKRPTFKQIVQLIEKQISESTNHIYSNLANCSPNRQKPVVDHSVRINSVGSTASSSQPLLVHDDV
# [3] = target: T1, Receptor-interacting serine/threonine-protein kinase 4 (Homo sapiens, UniProt P57078); assay: Binding affinity to human RIPK4
# T1 sequence (P57078 whole entry): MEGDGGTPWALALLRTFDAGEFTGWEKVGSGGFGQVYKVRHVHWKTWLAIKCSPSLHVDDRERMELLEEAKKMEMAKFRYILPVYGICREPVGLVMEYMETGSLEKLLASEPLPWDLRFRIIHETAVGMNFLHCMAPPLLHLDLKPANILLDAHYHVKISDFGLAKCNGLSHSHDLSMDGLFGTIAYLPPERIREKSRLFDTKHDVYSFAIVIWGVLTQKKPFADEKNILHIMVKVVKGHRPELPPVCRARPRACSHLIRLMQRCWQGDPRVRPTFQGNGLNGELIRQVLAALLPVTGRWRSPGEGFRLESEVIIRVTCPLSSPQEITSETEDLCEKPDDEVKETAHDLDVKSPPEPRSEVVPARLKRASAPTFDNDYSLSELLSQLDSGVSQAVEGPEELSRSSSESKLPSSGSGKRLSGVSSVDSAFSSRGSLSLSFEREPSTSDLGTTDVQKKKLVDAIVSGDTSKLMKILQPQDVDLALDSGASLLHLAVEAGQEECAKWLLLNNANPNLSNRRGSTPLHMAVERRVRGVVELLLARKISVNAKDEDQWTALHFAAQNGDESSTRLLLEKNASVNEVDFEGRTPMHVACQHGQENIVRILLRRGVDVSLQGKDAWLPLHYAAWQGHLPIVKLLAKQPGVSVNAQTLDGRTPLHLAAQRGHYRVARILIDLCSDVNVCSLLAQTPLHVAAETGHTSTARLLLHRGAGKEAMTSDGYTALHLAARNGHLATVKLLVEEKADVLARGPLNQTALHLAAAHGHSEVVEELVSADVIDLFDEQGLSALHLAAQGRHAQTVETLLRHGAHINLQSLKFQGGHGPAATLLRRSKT
# [4] = target: Receptor-interacting serine/threonine-protein kinase 2 (Homo sapiens, UniProt O43353); assay: Binding affinity to human RIPK2 in HEK293 cells; type: cell-based
# Sequence of Receptor-interacting serine/threonine-protein kinase 2 (O43353 whole entry): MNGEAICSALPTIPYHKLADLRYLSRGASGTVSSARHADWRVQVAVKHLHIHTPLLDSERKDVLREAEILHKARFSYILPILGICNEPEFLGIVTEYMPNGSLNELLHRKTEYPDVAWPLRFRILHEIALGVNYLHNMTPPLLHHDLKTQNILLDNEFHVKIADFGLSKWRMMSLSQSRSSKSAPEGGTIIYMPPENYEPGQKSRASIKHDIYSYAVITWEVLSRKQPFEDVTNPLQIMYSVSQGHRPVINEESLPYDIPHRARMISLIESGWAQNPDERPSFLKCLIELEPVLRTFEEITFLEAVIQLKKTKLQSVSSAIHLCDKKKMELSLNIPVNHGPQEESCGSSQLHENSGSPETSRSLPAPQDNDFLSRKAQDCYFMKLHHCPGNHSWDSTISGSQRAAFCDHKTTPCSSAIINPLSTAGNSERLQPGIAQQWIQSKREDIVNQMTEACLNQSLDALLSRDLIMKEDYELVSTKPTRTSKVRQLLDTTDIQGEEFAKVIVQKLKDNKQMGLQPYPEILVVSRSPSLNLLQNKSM
# [5] = Drug uptake in DSS-induced acute ulcerative colitis C57BL/6 mouse model assessed as drug concentration in colon at 20 mg/kg, po after 8 hrs; type: ADME, organism-based; settings: read-out: Drug uptake
# Mus musculus [6] = assay: Anti-inflammatory activity against DSS-induced acute ulcerative colitis C57BL/6 mouse model assessed as recovery of body weight at 20 to 40 mg/kg, po once a day measured after 2 days followed by 7 days after DSS treatment; type: functional, organism-based; settings: dose 20-40 mg/kg, time 2.0 day
# [7] = Cmax in Balb/C mouse at 10 mg/kg, po measured upto 48 hrs by LC-MS/MS analysis; type: ADME, organism-based; parameters: dose 10 mg/kg, time < 48 hrs, route po; settings: in vivo
# [8] = target: Epithelial discoidin domain-containing receptor 1 (Homo sapiens, UniProt Q08345); assay: Inhibition of human DDR1 by kinase assay
# Sequence of Epithelial discoidin domain-containing receptor 1 (Q08345 whole entry, the tested form may be a part): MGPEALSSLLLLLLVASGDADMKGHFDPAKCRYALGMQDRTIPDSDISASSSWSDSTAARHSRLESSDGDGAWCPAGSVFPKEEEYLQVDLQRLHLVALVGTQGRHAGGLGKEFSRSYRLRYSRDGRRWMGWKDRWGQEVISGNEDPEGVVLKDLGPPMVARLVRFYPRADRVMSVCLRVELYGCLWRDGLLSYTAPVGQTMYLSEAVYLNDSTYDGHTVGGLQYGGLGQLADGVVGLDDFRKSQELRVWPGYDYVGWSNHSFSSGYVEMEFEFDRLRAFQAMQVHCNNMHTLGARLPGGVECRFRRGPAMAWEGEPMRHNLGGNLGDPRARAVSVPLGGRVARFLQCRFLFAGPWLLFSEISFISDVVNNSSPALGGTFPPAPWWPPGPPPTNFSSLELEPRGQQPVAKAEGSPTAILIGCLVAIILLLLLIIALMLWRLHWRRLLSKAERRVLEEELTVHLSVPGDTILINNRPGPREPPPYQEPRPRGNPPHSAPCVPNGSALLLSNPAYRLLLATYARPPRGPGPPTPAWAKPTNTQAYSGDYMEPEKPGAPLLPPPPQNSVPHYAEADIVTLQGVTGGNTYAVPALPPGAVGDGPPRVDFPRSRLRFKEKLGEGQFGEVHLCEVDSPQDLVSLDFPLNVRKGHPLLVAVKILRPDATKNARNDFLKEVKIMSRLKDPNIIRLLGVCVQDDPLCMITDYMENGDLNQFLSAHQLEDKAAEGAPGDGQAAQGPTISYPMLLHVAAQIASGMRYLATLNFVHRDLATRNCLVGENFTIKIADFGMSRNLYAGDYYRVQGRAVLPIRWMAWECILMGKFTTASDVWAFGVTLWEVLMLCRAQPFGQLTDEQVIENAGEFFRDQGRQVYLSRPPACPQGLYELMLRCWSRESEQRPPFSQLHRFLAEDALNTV
# [9] = Volume of distribution in Balb/C mouse at 10 mg/kg, iv measured upto 48 hrs by LC-MS/MS analysis; type: ADME, organism-based; settings: in vivo
# [10] = target: T2, Dual serine/threonine and tyrosine protein kinase (Homo sapiens, UniProt Q6XUX3); assay: Binding affinity to human RIPK5
# T2 sequence (Q6XUX3 whole entry): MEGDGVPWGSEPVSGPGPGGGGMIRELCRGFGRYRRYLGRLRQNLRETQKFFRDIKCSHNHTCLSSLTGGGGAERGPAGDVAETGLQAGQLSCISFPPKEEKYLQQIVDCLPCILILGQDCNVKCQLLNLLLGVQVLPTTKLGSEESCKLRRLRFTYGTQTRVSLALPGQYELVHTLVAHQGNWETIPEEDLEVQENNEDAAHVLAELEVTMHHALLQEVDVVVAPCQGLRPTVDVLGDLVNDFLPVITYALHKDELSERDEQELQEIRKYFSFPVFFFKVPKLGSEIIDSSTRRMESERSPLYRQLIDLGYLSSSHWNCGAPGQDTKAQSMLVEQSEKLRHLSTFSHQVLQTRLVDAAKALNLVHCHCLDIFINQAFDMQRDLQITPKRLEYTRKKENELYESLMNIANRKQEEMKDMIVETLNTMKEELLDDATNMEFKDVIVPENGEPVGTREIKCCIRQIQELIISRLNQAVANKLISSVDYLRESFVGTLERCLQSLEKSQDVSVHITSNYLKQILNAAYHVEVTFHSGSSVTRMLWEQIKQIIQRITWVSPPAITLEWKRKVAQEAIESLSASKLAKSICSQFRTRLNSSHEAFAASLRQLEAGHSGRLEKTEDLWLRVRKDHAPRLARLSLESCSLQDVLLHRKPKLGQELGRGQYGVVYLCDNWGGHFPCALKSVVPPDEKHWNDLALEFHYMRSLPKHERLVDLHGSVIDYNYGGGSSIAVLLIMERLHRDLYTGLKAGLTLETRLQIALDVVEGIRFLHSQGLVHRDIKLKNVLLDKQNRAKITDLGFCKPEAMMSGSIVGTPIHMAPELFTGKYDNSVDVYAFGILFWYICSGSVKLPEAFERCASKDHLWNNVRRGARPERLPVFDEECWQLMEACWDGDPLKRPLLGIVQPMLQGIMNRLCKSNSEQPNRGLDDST
# [11] = Toxicity in rat H9c2 cells assessed as inhibitory rate; type: cell-based
# Mus musculus [12] = assay: Anti-inflammatory activity against DSS-induced acute ulcerative colitis C57BL/6 mouse model assessed as reduction in fecal occult blood at 20 to 40 mg/kg, po once a day measured after 2 days followed by 7 days after DSS treatment; type: functional, organism-based; settings: dose 20-40 mg/kg, time 2.0 day
# [13] = Elimination half life in Balb/C mouse at 10 mg/kg, po measured upto 48 hrs by LC-MS/MS analysis; type: ADME, organism-based; settings: in vivo, read-out: beta t1/2 (converted)
# Mus musculus [14] = assay: Anti-inflammatory activity against DSS-induced acute ulcerative colitis C57BL/6 mouse model assessed as recovery of weight loss at 20 mg/kg, po for 6 consecutive days; type: functional, organism-based
# [15] = target: Receptor-interacting serine/threonine-protein kinase 3 (Homo sapiens, UniProt Q9Y572); assay: Binding affinity to human RIPK3 in human Jurkat cells; type: cell-based
# Sequence of Receptor-interacting serine/threonine-protein kinase 3 (Q9Y572 whole entry): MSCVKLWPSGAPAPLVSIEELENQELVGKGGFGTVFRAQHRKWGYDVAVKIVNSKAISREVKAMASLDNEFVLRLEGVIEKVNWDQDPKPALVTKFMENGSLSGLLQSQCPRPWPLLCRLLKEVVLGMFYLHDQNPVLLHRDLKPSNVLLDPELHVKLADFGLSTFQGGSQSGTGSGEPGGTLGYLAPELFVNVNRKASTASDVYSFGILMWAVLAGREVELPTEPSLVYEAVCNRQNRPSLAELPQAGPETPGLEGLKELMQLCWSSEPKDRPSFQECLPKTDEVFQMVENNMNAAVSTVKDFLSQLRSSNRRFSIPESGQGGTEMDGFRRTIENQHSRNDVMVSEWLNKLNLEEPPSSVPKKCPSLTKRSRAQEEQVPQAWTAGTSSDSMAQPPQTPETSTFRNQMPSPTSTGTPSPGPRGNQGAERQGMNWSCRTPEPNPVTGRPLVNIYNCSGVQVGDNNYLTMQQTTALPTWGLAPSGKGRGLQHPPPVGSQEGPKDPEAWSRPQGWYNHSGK
# [16] = Volume of distribution in Balb/C mouse at 10 mg/kg, po measured upto 48 hrs by LC-MS/MS analysis; type: ADME, organism-based; settings: in vivo
structure (smiles),measurement,setting,value
Cc1ccc(-c2cn([C@H]3CC[C@@H](N)CC3)c3ncnc(N)c23)c(F)c1,Cmax,[1],959 ng/mL
same,IC50,[2],1510 nM
same,Kd,[3],2300 nM
same,Kd,[4],0.28 nM
same,concentration at 8 h,[5],9140 ng/g
same,Activity,Mus musculus [6],Active
same,Cmax,[7],68.1 ng/mL
same,IC50,[8],15 nM
same,Vd,[9],43.9 L/kg
same,Kd,[10],670 nM
same,IC50,[11],12.3 µM
same,Activity,Mus musculus [12],Active
same,half-life,[13],217 min
same,Activity,Mus musculus [14],Active
same,Kd,[15],74.5 nM
same,Vd,[16],333.24 L/kg
